Results from paper PMC8464809, “Anticancer and Structure Activity Relationship of Non-Symmetrical Choline Kinase Inhibitors” (Pharmaceutics, 2021).

How the values were obtained:
[1] = molecular target: T1, human ChoKα1 (Homo sapiens, UniProt P35790); assay: Inhibition of purified ChoKα1: incorporation of 14C from [methyl-14C]choline into phosphocholine; format: biochemical; conditions: purified ChoKα1, 1 mM choline, 10 mM ATP, 37 °C, 10 min; read-out: IC50 hChoKα1
T1 construct: made in house
Description: The effect of compounds 3a–h and 4a–h on ChoKα1 was assayed in purified ChoKα1 as previously described, by determining the rate of incorporation of ^14C from [methyl-^14C]choline into phosphocholine, both in the absence (control) or presence of different inhibitor concentrations. Briefly, 20 ng of purified ChoKα1 were incubated with 1 mM [methyl-^14C]choline (4500 dpm/nmol) in 100 mM Tris-HCl (pH 8.5), 10 mM MgCl2, 10 mM ATP, and incubated at 37 °C for 10 min. The reaction was stopped by immersing the reaction tubes in boiling water for 3 min. Aliquots of the reaction were applied to the origin of silica gel plates in the presence of phosphocholine (0.1 mg) and choline (0.1 mg) as carriers. The chromatography was developed in methanol/0.6% NaCl/28% NH4OH in water (50:50:5, v/v/v) as a solvent, and phosphocholine was visualized under exposure to iodine vapor. The corresponding spot was scraped and transferred to scintillation vials for measurement of radioactivity by a Beckman 6000-TA (Madrid, Spain) liquid-scintillation counter. The 50% inhibitory concentrations (IC50 value) were determined from the % activity of the enzyme at different concentrations of synthetic inhibitor using a sigmoidal dose-response curve (the ED50plus v1.0 software).

[2] = system: HT-29 cells; assay: Antiproliferative MTT assay, HT-29; format: cell-based; conditions: Homo sapiens, 72 h
Description: (§1) Human cervix carcinoma (HeLa) and human breast cancer (MCF-7) were grown in the DMEM medium (Gibco, Milan, Italy). B-acute lymphoblastic leukemia (RS4;11), T-acute lymphoblastic leukemia (CCRF-CEM and Jurkat), human promyelocytic cells (HL-60), and human colon adenocarcinoma (HT-29) cells were grown in RPMI medium (Gibco, Milan, Italy). Both media were supplemented with 115 units/mL of penicillin G (Gibco, Milan, Italy), 115 μg/mL of streptomycin (Invitrogen, Milan, Italy), and 10% FBS (Invitrogen, Milan, Italy). Cell lines were tested for mycoplasma contamination every 6 months by the RT-PCR analysis. Stock solutions (10 mM) of the different compounds were obtained by dissolving them in DMSO. Individual wells of 96-well tissue-culture microtiter plates were inoculated with 100 μL of complete medium containing 5 × 10^3 adherent cells or 25 × 10^3 leukemia cells. The plates were incubated at 37 °C in a humidified 5% CO2 incubator for 18 h prior to the experiments. After medium removal, 100 μL of fresh medium containing the test compound at different concentrations was added to each well and incubated at 37 °C for 72 h.

[3] = system: HeLa cells; assay: Antiproliferative MTT assay, HeLa; format: cell-based; conditions: Homo sapiens, 72 h
Description: as §1

[4] = system: MCF-7 cells; assay: Antiproliferative MTT assay, MCF-7; format: cell-based; conditions: Homo sapiens, MCF7, 72 h
Description: as §1

[5] = system: CCRF-CEM cells; assay: Antiproliferative MTT assay, CCRF-CEM; format: cell-based; conditions: Homo sapiens, 72 h
Description: as §1

[6] = system: HL-60 cells; assay: Antiproliferative MTT assay, HL-60; format: cell-based, human; conditions: for GI50: Homo sapiens, HL-60, 72 h, MTT
Description: as §1

[7] = system: RS4;11 cells; assay: Antiproliferative MTT assay, RS4;11; format: cell-based; conditions: Homo sapiens, 72 h
Description: as §1

[8] = Cytotoxicity in resting peripheral blood lymphocytes (MTT); format: cell-based; conditions: human, PBL not stimulated with PHA, healthy donors, read-out: GI50 PBLresting
Description: (§2) Additional experiments were conducted with peripheral blood lymphocytes (PBL) from healthy donors obtained as described previously. For cytotoxicity evaluations in proliferating PBL cultures, non-adherent cells were resuspended at 5 × 10^5 cells/mL in a growth medium containing 2.5 µg/mL PHA (Irvine Scientific). Different concentrations of the test compounds were added, and viability was determined 72 h later by the MTT test. For cytotoxicity evaluations in resting PBL cultures, non-adherent cells were resuspended (5 × 10^5 cells/mL) and treated for 72 h with the test compounds, as described above.

[9] = Cytotoxicity in PHA-stimulated peripheral blood lymphocytes (MTT); format: cell-based; conditions: human, PBL stimulated with PHA, healthy donors, read-out: GI50 PBLPHA
Description: as §2

[10] = system: Jurkat cells; assay: Apoptosis by annexin-V/PI flow cytometry; format: cell-based, human; conditions: after 24 h of treatment, concentration dependent
Description: Jurkat cells were treated with the test compounds and after different times stained with both PI, to stain DNA, and annexin V-fluorescein isothiocyanate, to stain membrane PS exposed on the cell surface, following the instructions of the manufacturer (Roche Diagnostics) of the Annexin-V-Fluos reagent.

[11] = system: HT-29, HeLa, MCF-7, CCRF-CEM, HL-60, and RS4;11cells; assay: Antiproliferative MTT assay, panel of six human tumor cell lines; format: cell-based; conditions: HL-60, RS4;11, 72 h
Description: as §1

[12] = system: choline uptake in HepG2 cells; assay: Choline uptake assay; format: cell-based; conditions: Homo sapiens, 10 min preincubation with the compound
Description: Choline uptake was determined as previously reported. Briefly, HepG2 cells (200,000 cells/well) were incubated for 10 min at 37 °C either in a medium containing different concentrations of ChoKα1 inhibitors or only with the medium as controls. The medium was then removed and the cells were immediately exposed to a medium containing [methyl-^14C]choline (16 μM, 31 Ci/mol) for 10 min at 37 °C. The incorporation of choline was stopped by medium aspiration followed by two washes with ice-cold PBS containing 580 μM choline. The cells were solubilized in NaOH 0.1 N and an aliquot was used to determine the total amount of radiolabel taken up by the cells.

T1 sequence (P35790 whole entry): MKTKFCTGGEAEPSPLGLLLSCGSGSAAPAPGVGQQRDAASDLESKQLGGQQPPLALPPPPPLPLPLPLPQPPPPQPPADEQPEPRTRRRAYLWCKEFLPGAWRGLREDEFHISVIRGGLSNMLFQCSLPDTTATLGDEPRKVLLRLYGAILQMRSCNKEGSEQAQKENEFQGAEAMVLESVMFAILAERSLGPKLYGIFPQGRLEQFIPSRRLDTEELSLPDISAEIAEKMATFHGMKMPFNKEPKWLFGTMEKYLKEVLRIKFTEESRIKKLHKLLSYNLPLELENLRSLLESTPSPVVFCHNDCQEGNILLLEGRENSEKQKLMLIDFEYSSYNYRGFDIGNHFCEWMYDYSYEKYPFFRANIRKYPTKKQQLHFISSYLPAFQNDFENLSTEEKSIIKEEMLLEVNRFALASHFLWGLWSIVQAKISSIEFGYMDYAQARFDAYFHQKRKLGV

Row | Compound | IC50 [1] | GI50 [2] | GI50 [3] | GI50 [4] | GI50 [5] | GI50 [6] | GI50 [7] | fold more potent than MN-48b ([6]; against HL-60 leukemic cells, MN-48b ref 23) | GI50 at 72 h [8] | GI50 at 72 h [9] | apoptotic cells (annexin-V/PI) [10] | GI50 values, range over six cell lines [11] | IC50 [12]
1 | Nc1cccc(OCc2ccc(C[n+]3ccc(N4CCCC4)cc3)cc2)c1 [Compound 3a] | > 50 µM | 36 ± 7.4 µM | 4.8 ± 0.58 µM | 22.8 ± 4.3 µM | 3.4 ± 0.7 µM | 4.8 ± 0.4 µM | 16.8 ± 4.8 µM | – | – | – | – | – | –
2 | Nc1cccc(OCc2ccc(-c3ccc(C[n+]4ccc(N5CCCC5)cc4)cc3)cc2)c1 [Compound 3b] | 17.5 ± 1.24 µM | – | – | – | – | – | – | – | – | – | – | – | –
3 | Nc1cccc(OCc2ccc(CCc3ccc(C[n+]4ccc(N5CCCC5)cc4)cc3)cc2)c1 [Compound 3c] | 8.56 ± 0.94 µM | 0.63 ± 0.14 µM | 0.068 ± 0.028 µM | 0.3 ± 0.1 µM | 0.03 ± 0.003 µM | 0.011 ± 0.005 µM | 0.15 ± 0.012 µM | 30 fold | > 10 µM | > 10 µM | significant increase of apoptotic cells | 630 to 11 nM | –
4 | Nc1cccc(OCc2ccc(CCCCc3ccc(C[n+]4ccc(N5CCCC5)cc4)cc3)cc2)c1 [Compound 3d] | 6.79 ± 0.47 µM | 0.58 ± 0.17 µM | 0.16 ± 0.048 µM | 0.5 ± 0.2 µM | 0.015 ± 0.005 µM | 0.12 ± 0.091 µM | 0.29 ± 0.053 µM | – | – | – | – | – | 15.8 ± 0.24 µM
5 | CN(C)c1cc[n+](Cc2ccc(COc3cccc(N)c3)cc2)cc1 [Compound 3e] | 6.33 ± 0.8 µM | 26.1 ± 6.7 µM | 8.2 ± 2.4 µM | 23.6 ± 5.1 µM | 1.2 ± 0.5 µM | 38.7 ± 6.2 µM | 53.6 ± 13.4 µM | – | – | – | – | – | –
6 | CN(C)c1cc[n+](Cc2ccc(-c3ccc(COc4cccc(N)c4)cc3)cc2)cc1 [Compound 3f] | 6.39 ± 0.46 µM | 4.4 ± 0.7 µM | 4.2 ± 0.5 µM | 7.6 ± 1.6 µM | 0.54 ± 0.21 µM | 2.4 ± 0.7 µM | 2 ± 0.5 µM | – | – | – | – | – | –
7 | CN(C)c1cc[n+](Cc2ccc(CCc3ccc(COc4cccc(N)c4)cc3)cc2)cc1 [Compound 3g] | 4.29 ± 0.12 µM | 2.2 ± 0.9 µM | 1.2 ± 0.2 µM | 4.3 ± 0.9 µM | 0.4 ± 0.26 µM | 1.6 ± 0.9 µM | 2.6 ± 0.2 µM | – | – | – | – | – | –
8 | CN(C)c1cc[n+](Cc2ccc(CCCCc3ccc(COc4cccc(N)c4)cc3)cc2)cc1 [Compound 3h] | 7.01 ± 0.13 µM | – | – | – | – | – | – | – | – | – | – | – | –
9 | Oc1cccc(NCc2ccc(C[n+]3ccc(N4CCCC4)cc3)cc2)c1 [Compound 4a] | 3.34 ± 0.34 µM | 49.7 ± 11.4 µM | 12.8 ± 2.6 µM | 17.8 ± 5.3 µM | 7.3 ± 2.5 µM | 4.1 ± 1.2 µM | 24.5 ± 2.9 µM | – | – | – | – | – | –
10 | Oc1cccc(NCc2ccc(-c3ccc(C[n+]4ccc(N5CCCC5)cc4)cc3)cc2)c1 [Compound 4b] | 3.85 ± 0.1 µM | 6.6 ± 2.3 µM | 2.1 ± 0.4 µM | 4.4 ± 0.5 µM | 0.5 ± 0.1 µM | 1.1 ± 0.3 µM | 2.8 ± 0.6 µM | – | – | – | – | – | –
11 | Oc1cccc(NCc2ccc(CCc3ccc(C[n+]4ccc(N5CCCC5)cc4)cc3)cc2)c1 [Compound 4c] | 3.83 ± 0.91 µM | 5.3 ± 2.1 µM | 0.86 ± 0.26 µM | 1.7 ± 0.4 µM | 0.14 ± 0.03 µM | 0.065 ± 0.023 µM | 0.46 ± 0.061 µM | – | – | – | – | – | –
12 | Oc1cccc(NCc2ccc(CCCCc3ccc(C[n+]4ccc(N5CCCC5)cc4)cc3)cc2)c1 [Compound 4d] | 3.36 ± 0.17 µM | 5.8 ± 1.9 µM | 0.39 ± 0.12 µM | 2.8 ± 0.5 µM | 0.086 ± 0.03 µM | 0.33 ± 0.074 µM | 0.71 ± 0.16 µM | – | – | – | – | – | –
13 | CN(C)c1cc[n+](Cc2ccc(CNc3cccc(O)c3)cc2)cc1 [Compound 4e] | 2.82 ± 0.16 µM | 23.8 ± 8.2 µM | 12.4 ± 1.8 µM | 6.7 ± 1.5 µM | 8.4 ± 1.6 µM | 4 ± 0.9 µM | 31 ± 2.6 µM | – | – | – | – | – | –
14 | CN(C)c1cc[n+](Cc2ccc(-c3ccc(CNc4cccc(O)c4)cc3)cc2)cc1 [Compound 4f] | – | 13.2 ± 5 µM | 3.6 ± 0.4 µM | 5 ± 1 µM | 1.1 ± 0.4 µM | 1.3 ± 0.4 µM | 3.7 ± 0.4 µM | – | 7.6 ± 1.1 µM | 3.6 ± 0.8 µM | significant increase of apoptotic cells | – | 3.5 ± 0.07 µM
15 | CN(C)c1cc[n+](Cc2ccc(CCc3ccc(CNc4cccc(O)c4)cc3)cc2)cc1 [Compound 4g] | 3.66 ± 0.11 µM | 5.2 ± 1.7 µM | 1.7 ± 0.2 µM | 2.4 ± 0.2 µM | 0.7 ± 0.1 µM | 0.25 ± 0.066 µM | 1.1 ± 0.3 µM | – | – | – | – | – | –
16 | CN(C)c1cc[n+](Cc2ccc(CCCCc3ccc(CNc4cccc(O)c4)cc3)cc2)cc1 [Compound 4h] | – | 3.6 ± 1.4 µM | 0.7 ± 0.1 µM | 2.2 ± 1 µM | 0.16 ± 0.034 µM | 0.37 ± 0.079 µM | 0.5 ± 0.08 µM | – | – | – | – | – | –
